{"source": "paper PMC8534050", "about": "“Discovery of a Potent and Highly Isoform-Selective Inhibitor of the Neglected Ribosomal Protein S6 Kinase Beta 2 (S6K2)” (Cancers, 2021)", "assay_in_all_cases": "DSF thermal shift assay", "format_in_all_cases": "binding", "key": {"MST4": {"biological_target": "T1, MST4 (Homo sapiens, UniProt Q9P289)", "T1 construct": "purchased in-house DSF (thermal shift) panel per Fedorov et al", "conditions": "inhibitor 10 μM, protein 2 μM", "procedure": "(§1) Differences in the melting temperature (ΔTm) were measured as described by Fedorov et al.. Purified proteins were buffered in 25 mM HEPES (pH 7.5), 500 mM NaCl and were assayed in a 384-well plate with a final protein concentration of 2 μM in 10 μL assay volume. Inhibitors were added to a final concentration of 10 μM using an ECHO 550 acoustic dispenser (Labcyte, San José, CA, USA). As a fluorescence probe, SYPRO-Orange (Molecular Probes, Eugene, OR, USA) was added in a 1:5000 dilution. […] Data were analyzed through Boltzmann equation in the Protein Thermal Shift software (Applied Biosystems, Waltham, MA, USA). Samples were measured in technical duplicates."}, "MELK": {"biological_target": "T2, MELK (Homo sapiens, UniProt Q14680)", "T2 construct": "purchased in-house DSF (thermal shift) panel per Fedorov et al", "T2 sequence (Q14680 whole entry)": "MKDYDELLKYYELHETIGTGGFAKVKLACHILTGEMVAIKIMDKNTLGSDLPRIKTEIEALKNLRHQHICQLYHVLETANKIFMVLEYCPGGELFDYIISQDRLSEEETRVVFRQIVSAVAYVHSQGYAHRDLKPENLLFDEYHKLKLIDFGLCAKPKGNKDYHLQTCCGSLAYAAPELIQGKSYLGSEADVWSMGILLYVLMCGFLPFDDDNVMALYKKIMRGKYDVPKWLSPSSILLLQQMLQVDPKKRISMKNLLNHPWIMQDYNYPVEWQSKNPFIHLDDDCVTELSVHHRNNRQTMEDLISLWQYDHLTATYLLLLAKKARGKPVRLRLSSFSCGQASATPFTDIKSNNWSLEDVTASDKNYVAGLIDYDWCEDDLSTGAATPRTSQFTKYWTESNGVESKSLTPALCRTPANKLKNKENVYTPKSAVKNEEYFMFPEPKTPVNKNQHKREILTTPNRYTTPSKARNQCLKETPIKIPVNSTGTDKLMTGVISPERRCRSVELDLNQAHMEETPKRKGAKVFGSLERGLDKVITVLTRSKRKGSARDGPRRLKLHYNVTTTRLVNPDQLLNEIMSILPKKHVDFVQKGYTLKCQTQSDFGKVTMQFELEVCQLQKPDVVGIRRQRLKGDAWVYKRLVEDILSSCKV", "conditions": "inhibitor 10 μM, protein 2 μM", "procedure": "as §1"}, "MARK4": {"biological_target": "T3, MARK4 (Homo sapiens, UniProt Q96L34)", "T3 construct": "purchased in-house DSF (thermal shift) panel per Fedorov et al; IC50 follow-up at Reaction Biology Corp", "conditions": "inhibitor 10 μM, protein 2 μM", "procedure": "as §1"}, "FGFR1": {"biological_target": "T4, FGFR1 (Homo sapiens, UniProt P11362)", "T4 construct": "purchased in-house DSF (thermal shift) panel per Fedorov et al; IC50 follow-up at Reaction Biology Corp", "conditions": "inhibitor 10 μM, protein 2 μM", "procedure": "as §1"}, "STK17B": {"biological_target": "T5, STK17B (Homo sapiens, UniProt O94768)", "T5 construct": "purchased in-house DSF (thermal shift) panel per Fedorov et al; IC50 follow-up at Reaction Biology Corp", "T5 sequence (O94768 whole entry)": "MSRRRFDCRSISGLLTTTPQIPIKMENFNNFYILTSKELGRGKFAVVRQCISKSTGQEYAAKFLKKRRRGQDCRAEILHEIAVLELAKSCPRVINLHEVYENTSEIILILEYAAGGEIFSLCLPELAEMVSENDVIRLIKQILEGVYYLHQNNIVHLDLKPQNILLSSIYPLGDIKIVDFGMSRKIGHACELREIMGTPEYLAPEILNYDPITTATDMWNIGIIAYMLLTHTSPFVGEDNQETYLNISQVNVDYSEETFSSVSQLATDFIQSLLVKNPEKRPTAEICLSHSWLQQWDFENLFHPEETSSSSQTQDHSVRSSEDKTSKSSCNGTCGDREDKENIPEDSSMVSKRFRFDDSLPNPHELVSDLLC", "conditions": "inhibitor 10 μM, protein 2 μM", "procedure": "as §1"}, "MAP2K4": {"biological_target": "T6, MAP2K4 (Homo sapiens, UniProt P45985)", "T6 construct": "purchased in-house DSF (thermal shift) panel per Fedorov et al", "T6 sequence (P45985 whole entry)": "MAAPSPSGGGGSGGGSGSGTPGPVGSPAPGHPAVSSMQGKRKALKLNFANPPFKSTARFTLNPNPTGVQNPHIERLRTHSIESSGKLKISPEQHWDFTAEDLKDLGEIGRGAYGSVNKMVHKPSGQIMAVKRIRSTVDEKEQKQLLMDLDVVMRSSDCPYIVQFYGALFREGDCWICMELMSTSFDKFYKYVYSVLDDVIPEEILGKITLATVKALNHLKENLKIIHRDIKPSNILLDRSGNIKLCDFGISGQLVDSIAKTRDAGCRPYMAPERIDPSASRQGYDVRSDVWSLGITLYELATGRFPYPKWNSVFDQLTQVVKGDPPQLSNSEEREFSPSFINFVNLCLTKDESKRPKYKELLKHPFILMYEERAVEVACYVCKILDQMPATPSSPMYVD", "conditions": "inhibitor 10 μM, protein 2 μM", "procedure": "as §1"}, "GSG2": {"biological_target": "T7, GSG2 (Homo sapiens, UniProt Q8TF76)", "T7 construct": "purchased in-house DSF (thermal shift) panel per Fedorov et al", "conditions": "inhibitor 10 μM, protein 2 μM", "procedure": "as §1"}, "STK17": {"biological_target": "T8, STK17 (Homo sapiens, UniProt Q9UEE5)", "T8 construct": "purchased in-house DSF (thermal shift) panel per Fedorov et al", "conditions": "inhibitor 10 μM, protein 2 μM", "procedure": "as §1"}, "STK6": {"biological_target": "T9, STK6 (Homo sapiens, UniProt O14965)", "T9 construct": "purchased in-house DSF (thermal shift) panel per Fedorov et al; IC50 follow-up at Reaction Biology Corp", "conditions": "inhibitor 10 μM, protein 2 μM", "procedure": "as §1"}, "CK2A1": {"biological_target": "T10, CK2A1 (Homo sapiens, UniProt P68400)", "T10 construct": "purchased in-house DSF (thermal shift) panel per Fedorov et al", "conditions": "inhibitor 10 μM, protein 2 μM", "procedure": "as §1"}, "TOPK": {"biological_target": "T11, TOPK (Homo sapiens, UniProt Q96KB5)", "T11 construct": "purchased in-house DSF (thermal shift) panel per Fedorov et al", "conditions": "inhibitor 10 μM, protein 2 μM", "procedure": "as §1"}, "DYRK1A": {"biological_target": "T12, DYRK1A (Homo sapiens, UniProt Q13627)", "T12 construct": "purchased in-house DSF (thermal shift) panel per Fedorov et al", "conditions": "inhibitor 10 μM, protein 2 μM", "procedure": "as §1"}, "CASK": {"biological_target": "T13, CASK (Homo sapiens, UniProt O14936)", "T13 construct": "purchased in-house DSF (thermal shift) panel per Fedorov et al; IC50 follow-up at Reaction Biology Corp", "conditions": "inhibitor 10 μM, protein 2 μM", "procedure": "as §1"}, "CSNK1D": {"biological_target": "T14, CSNK1D (Homo sapiens, UniProt P48730)", "T14 construct": "purchased in-house DSF (thermal shift) panel per Fedorov et al", "conditions": "inhibitor 10 μM, protein 2 μM", "procedure": "as §1"}, "MAPK9": {"biological_target": "T15, MAPK9 (Homo sapiens, UniProt P45984)", "T15 construct": "purchased in-house DSF (thermal shift) panel per Fedorov et al", "T15 sequence (P45984 whole entry)": "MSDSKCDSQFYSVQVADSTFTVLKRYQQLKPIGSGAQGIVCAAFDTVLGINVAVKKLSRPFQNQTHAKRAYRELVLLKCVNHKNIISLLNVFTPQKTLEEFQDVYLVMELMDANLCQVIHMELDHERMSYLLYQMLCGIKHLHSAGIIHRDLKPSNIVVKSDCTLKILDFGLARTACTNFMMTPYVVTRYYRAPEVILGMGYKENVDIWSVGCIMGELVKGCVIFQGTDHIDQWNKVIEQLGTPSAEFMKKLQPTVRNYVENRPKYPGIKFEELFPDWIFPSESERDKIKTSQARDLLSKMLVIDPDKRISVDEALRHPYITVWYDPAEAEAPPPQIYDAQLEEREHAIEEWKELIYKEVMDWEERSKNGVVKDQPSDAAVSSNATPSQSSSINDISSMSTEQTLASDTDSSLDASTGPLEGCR", "conditions": "inhibitor 10 μM, protein 2 μM", "procedure": "as §1"}, "SRPK1": {"biological_target": "T16, SRPK1 (Homo sapiens, UniProt Q96SB4)", "T16 construct": "purchased in-house DSF (thermal shift) panel per Fedorov et al", "T16 sequence (Q96SB4 whole entry)": "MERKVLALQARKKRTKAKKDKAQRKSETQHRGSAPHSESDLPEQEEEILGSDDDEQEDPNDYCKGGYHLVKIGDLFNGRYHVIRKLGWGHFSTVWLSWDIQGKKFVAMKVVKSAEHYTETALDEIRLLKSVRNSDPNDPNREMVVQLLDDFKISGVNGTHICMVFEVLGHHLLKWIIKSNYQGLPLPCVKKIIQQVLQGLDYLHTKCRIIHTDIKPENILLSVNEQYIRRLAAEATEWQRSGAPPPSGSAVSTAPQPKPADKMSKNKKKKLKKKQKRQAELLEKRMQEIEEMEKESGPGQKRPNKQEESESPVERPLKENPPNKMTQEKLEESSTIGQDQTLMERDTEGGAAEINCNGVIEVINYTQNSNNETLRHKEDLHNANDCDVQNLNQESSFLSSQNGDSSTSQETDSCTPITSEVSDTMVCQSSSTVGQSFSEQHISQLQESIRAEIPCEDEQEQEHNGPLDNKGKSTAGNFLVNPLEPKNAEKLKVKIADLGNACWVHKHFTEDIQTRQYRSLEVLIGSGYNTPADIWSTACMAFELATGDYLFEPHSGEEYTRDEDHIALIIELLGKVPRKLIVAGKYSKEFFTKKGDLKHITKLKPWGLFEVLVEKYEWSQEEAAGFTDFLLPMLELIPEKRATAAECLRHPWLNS", "conditions": "inhibitor 10 μM, protein 2 μM", "procedure": "as §1"}, "VRK1": {"biological_target": "T17, VRK1 (Homo sapiens, UniProt Q99986)", "T17 construct": "purchased in-house DSF (thermal shift) panel per Fedorov et al; IC50 follow-up at Reaction Biology Corp", "conditions": "inhibitor 10 μM, protein 2 μM", "procedure": "as §1"}, "MAP2K1": {"biological_target": "T18, MAP2K1 (Homo sapiens, UniProt Q02750)", "T18 construct": "purchased in-house DSF (thermal shift) panel per Fedorov et al", "T18 sequence (Q02750 whole entry)": "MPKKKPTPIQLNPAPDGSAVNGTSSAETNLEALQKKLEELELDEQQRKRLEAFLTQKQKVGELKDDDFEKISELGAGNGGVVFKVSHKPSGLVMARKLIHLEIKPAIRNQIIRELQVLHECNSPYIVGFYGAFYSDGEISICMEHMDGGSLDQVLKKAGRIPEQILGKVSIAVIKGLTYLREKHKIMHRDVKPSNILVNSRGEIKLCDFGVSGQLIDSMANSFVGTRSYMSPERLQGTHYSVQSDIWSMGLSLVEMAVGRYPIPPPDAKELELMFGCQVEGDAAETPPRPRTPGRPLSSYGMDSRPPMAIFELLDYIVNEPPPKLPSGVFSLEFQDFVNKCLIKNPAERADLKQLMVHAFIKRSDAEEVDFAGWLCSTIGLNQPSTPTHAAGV", "conditions": "inhibitor 10 μM, protein 2 μM", "procedure": "as §1"}, "BRAF": {"biological_target": "T19, BRAF (Homo sapiens, UniProt P15056)", "T19 construct": "purchased in-house DSF (thermal shift) panel per Fedorov et al", "conditions": "inhibitor 10 μM, protein 2 μM", "procedure": "as §1"}, "ULK3": {"biological_target": "T20, ULK3 (Homo sapiens, UniProt Q6PHR2)", "T20 construct": "purchased in-house DSF (thermal shift) panel per Fedorov et al", "conditions": "inhibitor 10 μM, protein 2 μM", "procedure": "as §1"}, "MAPK13": {"biological_target": "T21, MAPK13 (Homo sapiens, UniProt O15264)", "T21 construct": "purchased in-house DSF (thermal shift) panel per Fedorov et al", "conditions": "MAPK13; inhibitor 10 μM, protein 2 μM; read-out: ΔTm", "procedure": "(§2) Differences in the melting temperature (ΔTm) were measured as described by Fedorov et al.. Purified proteins were buffered in 25 mM HEPES (pH 7.5), 500 mM NaCl and were assayed in a 384-well plate with a final protein concentration of 2 μM in 10 μL assay volume. Inhibitors were added to a final concentration of 10 μM using an ECHO 550 acoustic dispenser (Labcyte, San José, CA, USA). As a fluorescence probe, SYPRO-Orange (Molecular Probes, Eugene, OR, USA) was added in a 1:5000 dilution. Filters for excitation and emission were set to 465 nm and 590 nm, respectively. The temperature was increased from 25 °C with 3 °C/min to a final temperature of 95 °C, while scanning, using the QuantStudio5 (Applied Biosystems, Waltham, MA, USA). Data were analyzed through Boltzmann equation in the Protein Thermal Shift software (Applied Biosystems, Waltham, MA, USA). Samples were measured in technical duplicates."}, "MAPK6": {"biological_target": "T22, MAPK6 (Homo sapiens, UniProt Q16659)", "T22 construct": "purchased in-house DSF (thermal shift) panel per Fedorov et al", "conditions": "MAPK6; inhibitor 10 μM, protein 2 μM; read-out: ΔTm", "procedure": "as §2"}, "CAMK4": {"biological_target": "T23, CAMK4 (Homo sapiens, UniProt Q16566)", "T23 construct": "purchased in-house DSF (thermal shift) panel per Fedorov et al", "conditions": "CAMK4; inhibitor 10 μM, protein 2 μM; read-out: ΔTm", "procedure": "as §2"}, "SLK": {"biological_target": "T24, SLK (Homo sapiens, UniProt Q9H2G2)", "T24 construct": "purchased in-house DSF (thermal shift) panel per Fedorov et al", "conditions": "SLK; inhibitor 10 μM, protein 2 μM; read-out: ΔTm", "procedure": "as §2"}, "OSR1": {"biological_target": "T25, OSR1 (Homo sapiens, UniProt O95747)", "T25 construct": "purchased in-house DSF (thermal shift) panel per Fedorov et al", "conditions": "OSR1; inhibitor 10 μM, protein 2 μM; read-out: ΔTm", "procedure": "as §2"}, "MERTK": {"biological_target": "T26, MERTK (Homo sapiens, UniProt Q12866)", "T26 construct": "purchased in-house DSF (thermal shift) panel per Fedorov et al", "T26 sequence (Q12866 21-999)": "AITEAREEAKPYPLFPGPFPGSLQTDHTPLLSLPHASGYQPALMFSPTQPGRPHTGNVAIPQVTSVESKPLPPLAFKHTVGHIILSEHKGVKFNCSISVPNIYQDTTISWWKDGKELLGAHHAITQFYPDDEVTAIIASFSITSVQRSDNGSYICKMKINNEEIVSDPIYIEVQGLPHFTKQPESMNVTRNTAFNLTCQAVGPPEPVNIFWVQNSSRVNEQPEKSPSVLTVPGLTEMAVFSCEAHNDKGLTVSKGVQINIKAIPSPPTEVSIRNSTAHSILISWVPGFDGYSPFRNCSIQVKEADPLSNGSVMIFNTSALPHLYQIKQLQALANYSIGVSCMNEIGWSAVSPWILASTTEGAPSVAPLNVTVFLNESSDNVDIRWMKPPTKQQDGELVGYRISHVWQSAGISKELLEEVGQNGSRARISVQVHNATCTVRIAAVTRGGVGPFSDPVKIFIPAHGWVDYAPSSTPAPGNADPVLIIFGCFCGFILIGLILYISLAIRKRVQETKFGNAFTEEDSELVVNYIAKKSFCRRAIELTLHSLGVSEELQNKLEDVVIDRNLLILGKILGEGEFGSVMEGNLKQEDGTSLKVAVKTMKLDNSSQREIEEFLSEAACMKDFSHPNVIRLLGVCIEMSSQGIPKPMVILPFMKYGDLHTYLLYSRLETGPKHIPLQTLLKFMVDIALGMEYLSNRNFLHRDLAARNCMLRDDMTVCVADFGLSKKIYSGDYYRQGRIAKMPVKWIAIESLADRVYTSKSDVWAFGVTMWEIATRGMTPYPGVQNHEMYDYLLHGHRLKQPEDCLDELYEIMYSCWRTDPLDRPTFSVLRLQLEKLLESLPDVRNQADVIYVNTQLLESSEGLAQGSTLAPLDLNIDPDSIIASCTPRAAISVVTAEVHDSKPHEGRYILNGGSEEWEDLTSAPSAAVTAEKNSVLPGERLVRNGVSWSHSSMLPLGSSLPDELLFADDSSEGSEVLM", "conditions": "MERTK; inhibitor 10 μM, protein 2 μM; read-out: ΔTm", "procedure": "as §2"}, "CDC42BPA": {"biological_target": "T27, CDC42BPA (Homo sapiens, UniProt Q5VT25)", "T27 construct": "purchased in-house DSF (thermal shift) panel per Fedorov et al", "conditions": "CDC42BPA; inhibitor 10 μM, protein 2 μM; read-out: ΔTm", "procedure": "as §2"}, "STK39": {"biological_target": "T28, STK39 (Homo sapiens, UniProt Q9UEW8)", "T28 construct": "purchased in-house DSF (thermal shift) panel per Fedorov et al; IC50 follow-up at Reaction Biology Corp", "conditions": "STK39; inhibitor 10 μM, protein 2 μM; read-out: ΔTm", "procedure": "as §2"}, "STK10": {"biological_target": "T29, STK10 (Homo sapiens, UniProt O94804)", "T29 construct": "purchased in-house DSF (thermal shift) panel per Fedorov et al", "T29 sequence (O94804 whole entry)": "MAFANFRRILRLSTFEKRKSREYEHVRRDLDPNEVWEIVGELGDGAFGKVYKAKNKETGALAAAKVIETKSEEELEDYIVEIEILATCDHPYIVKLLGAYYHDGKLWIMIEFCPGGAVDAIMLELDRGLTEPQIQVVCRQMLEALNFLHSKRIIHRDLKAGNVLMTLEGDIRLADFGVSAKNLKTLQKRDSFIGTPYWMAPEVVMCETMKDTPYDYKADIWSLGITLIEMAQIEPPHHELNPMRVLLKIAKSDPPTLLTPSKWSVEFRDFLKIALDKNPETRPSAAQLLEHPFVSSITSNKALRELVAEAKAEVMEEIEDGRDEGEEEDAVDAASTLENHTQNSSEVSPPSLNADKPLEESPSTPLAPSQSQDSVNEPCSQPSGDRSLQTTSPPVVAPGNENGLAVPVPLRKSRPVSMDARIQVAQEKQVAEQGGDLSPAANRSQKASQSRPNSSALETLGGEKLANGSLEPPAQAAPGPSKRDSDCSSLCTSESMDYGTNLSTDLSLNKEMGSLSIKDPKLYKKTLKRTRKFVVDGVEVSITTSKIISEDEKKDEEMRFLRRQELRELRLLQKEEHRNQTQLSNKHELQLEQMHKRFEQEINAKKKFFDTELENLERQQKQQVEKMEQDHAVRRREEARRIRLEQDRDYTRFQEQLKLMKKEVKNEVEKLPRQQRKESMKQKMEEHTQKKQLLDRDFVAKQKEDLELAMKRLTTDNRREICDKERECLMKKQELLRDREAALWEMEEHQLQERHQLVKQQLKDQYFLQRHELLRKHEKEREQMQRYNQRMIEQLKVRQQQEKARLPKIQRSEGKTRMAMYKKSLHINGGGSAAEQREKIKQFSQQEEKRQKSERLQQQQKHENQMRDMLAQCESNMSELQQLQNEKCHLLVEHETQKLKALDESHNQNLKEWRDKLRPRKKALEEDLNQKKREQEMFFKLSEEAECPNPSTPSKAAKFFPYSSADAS", "conditions": "STK10; inhibitor 10 μM, protein 2 μM; read-out: ΔTm", "procedure": "as §2"}, "STK3": {"biological_target": "T30, STK3 (Homo sapiens, UniProt Q13188)", "T30 construct": "purchased in-house DSF (thermal shift) panel per Fedorov et al", "conditions": "STK3; inhibitor 10 μM, protein 2 μM; read-out: ΔTm", "procedure": "as §2"}}}
{"compound": "CCc1cnc(Nc2nc(Cl)ccc2[N+](=O)[O-])nc1N1CCN(Cc2nc3cc(C(F)(F)F)ccc3[nH]2)CC1", "note": "[Compound 2]", "values": [{"measurement": "ΔTm at 10 µM", "setting": "MST4", "result": -1.1, "unit": "°C"}, {"measurement": "ΔTm at 10 µM", "setting": "MELK", "result": 0.4, "unit": "°C"}, {"measurement": "ΔTm at 10 µM", "setting": "MARK4", "result": 0.1, "unit": "°C"}, {"measurement": "ΔTm at 10 µM", "setting": "FGFR1", "result": 0.4, "unit": "°C"}, {"measurement": "ΔTm at 10 µM", "setting": "STK17B", "result": -0.8, "unit": "°C"}, {"measurement": "ΔTm", "setting": "MAP2K4", "result": "> 2", "unit": "°C"}, {"measurement": "ΔTm at 10 µM", "setting": "MAP2K4", "result": 3, "unit": "°C"}, {"measurement": "ΔTm at 10 µM", "setting": "GSG2", "result": 0.1, "unit": "°C"}, {"measurement": "ΔTm at 10 µM", "setting": "STK17", "result": -0.7, "unit": "°C"}, {"measurement": "ΔTm at 10 µM", "setting": "STK6", "result": 0.2, "unit": "°C"}, {"measurement": "ΔTm at 10 µM", "setting": "CK2A1", "result": 0.1, "unit": "°C"}, {"measurement": "ΔTm at 10 µM", "setting": "TOPK", "result": -0.5, "unit": "°C"}, {"measurement": "ΔTm at 10 µM", "setting": "DYRK1A", "result": -2.4, "unit": "°C"}, {"measurement": "ΔTm at 10 µM", "setting": "CASK", "result": -0.9, "unit": "°C"}, {"measurement": "ΔTm at 10 µM", "setting": "CSNK1D", "result": 0.2, "unit": "°C"}, {"measurement": "ΔTm at 10 µM", "setting": "MAPK9", "result": 0, "unit": "°C"}, {"measurement": "ΔTm at 10 µM", "setting": "SRPK1", "result": 0, "unit": "°C"}, {"measurement": "ΔTm at 10 µM", "setting": "VRK1", "result": -0.4, "unit": "°C"}, {"measurement": "ΔTm at 10 µM", "setting": "MAP2K1", "result": -0.3, "unit": "°C"}, {"measurement": "ΔTm at 10 µM", "setting": "BRAF", "result": -0.1, "unit": "°C"}, {"measurement": "ΔTm at 10 µM", "setting": "ULK3", "result": 0.4, "unit": "°C"}, {"measurement": "ΔTm at 10 µM", "setting": "MAPK13", "result": -0.6, "unit": "°C"}, {"measurement": "ΔTm at 10 µM", "setting": "MAPK6", "result": 0.2, "unit": "°C"}, {"measurement": "ΔTm at 10 µM", "setting": "CAMK4", "result": 0.1, "unit": "°C"}, {"measurement": "ΔTm at 10 µM", "setting": "SLK", "result": 1.9, "unit": "°C"}, {"measurement": "ΔTm at 10 µM", "setting": "OSR1", "result": 0.4, "unit": "°C"}, {"measurement": "ΔTm at 10 µM", "setting": "MERTK", "result": -0.1, "unit": "°C"}, {"measurement": "ΔTm at 10 µM", "setting": "CDC42BPA", "result": 0.3, "unit": "°C"}, {"measurement": "ΔTm at 10 µM", "setting": "STK39", "result": 0.6, "unit": "°C"}, {"measurement": "ΔTm at 10 µM", "setting": "STK10", "result": 1.8, "unit": "°C"}, {"measurement": "ΔTm at 10 µM", "setting": "STK3", "result": -0.2, "unit": "°C"}]}
